Laboratory results as given in patent US20240148757A1, “USE OF DIHYDROOROTATE DEHYDROGENASE (DHODH) INHIBITORS TO TARGET FERROPTOSIS IN CANCER THERAPY” (BOARD OF REGENTS, THE UNIVERSITY OF TEXAS SYSTEM, priority 2021, published 2024).

Key:
GPX4^low NCI-H226 cells = experiment: Cell viability / cell death (ferroptosis) in NCI-H226 cells; assay type: cell-based, human; details: BQR; pretreatment Lip-1 or ZVF 10 μM, 24 hours
Description: (§1) Viable cells were measured using Cell Counting Kit-8 (CCK-8, Dojindo) as previously described (Koppula, P., Zhang, Y., Shi, J., Li, W. & Gan, B, J Biol Chem 292, 14240-14249 (2017); Liu, X. & Gan, B, Cell Cycle 15, 3471-3481 (2016)). Briefly, cells were seeded onto 96-well plates at a density of 2×10^4 per well. The next day, cells were treated with GPX4 or DHODH inhibitors for 4 hours. Subsequently, cells exposed to 10 μl CCK-8 reagent (100 μl medium per well) for 1 hour at 37° C., 5% CO2 in an incubator. The absorbance at a wavelength of 450 nm was determined using a FLUOstar Omega microplate reader (BMG Labtech).
(§2) Cell death was measured by propidium iodide (Roche) staining using a flow cytometer, as previously described (Dai, F., et al., Proc Natl Acad Sci USA 114, 3192-3197 (2017); Zhang, Y., et al., Cancer Res 80, 2243-2256 (2020)). For propidium iodide-staining, cells were seeded at a density of 50% confluence into 12-well plates. The next day, cells were treated with different reagents. To measure cell death, the cells were collected (including floating dead cells), stained with 5 μg/ml propidium iodide and the percentage of the propidium iodide-positive dead cell population was analyzed using the flow cytometer BD Accuri C6 (BD Biosciences) and an FL2 detector. A minimum of 10,000 single cells were analyzed per well and all experiments were carried out at least in triplicate.

[1] = test system: GPX4^low NCI-H226 xenografts; experiment: NCI-H226 xenograft model; assay type: in vivo, athymic nude mice; details: liproxstatin-1 10 mg/kg intraperitoneally daily
Description: All the xenograft experiments were performed in accordance with a protocol approved by the Institutional Animal Care and Use Committee and Institutional Review Board at The University of Texas MD Anderson Cancer Center. The study is compliant with all relevant ethical regulations regarding animal research. Female 4- to 6-week-old athymic nude mice (Foxn1^nu/Foxn1^nu) were purchased from the Experimental Radiation Oncology Breeding Core Facility at MD Anderson Cancer Center and housed in the Animal Care Facility at the Department of Veterinary Medicine and Surgery at MD Anderson. Cancer cell lines were suspended and counted in cold phosphate-buffered saline (PBS), and 5×10^6 HT-1080 or 1×10^7 NCI-H226 cells were injected into mice subcutaneously. When the tumor reached 50-100 mm^3, the mice were assigned randomly into different treatment groups. Brequinar or sulfasalazine was dissolved in dimethyl sulfoxide (DMSO) and diluted in PBS. Brequinar was intraperitoneally injected into mice at a dose of 30 mg/kg every three days. Sulfasalazine was intraperitoneally injected daily at a dose of 100 mg/kg. Liproxstatin-1 diluted in PBS was intraperitoneally injected daily at a dose of 10 mg/kg. […] The tumor volume was measured every 3 days until the endpoint and calculated according to the equation volume=length×width^2×½.

DHODH KO HT-1080 cells = experiment: Cell viability / cell death (ferroptosis) in DHODH KO HT-1080 cells; assay type: cell-based, human; details: DHODH KO; pretreatment 10 μM, 24 hours
Description: Knockout of DHODH, ACSL4 and COQ2 in human cell lines was performed using single guide RNAs (sgRNAs) and doxycycline (DOX)-inducible CRISPR-Cas9 expression system as described in our recent publication (Lee, H., et al., Nature cell biology 22, 225-234 (2020)). sgRNAs were cloned into the lentiviral lentiGuide vector. LentiGuide clones were transfected into HEK293T cells with psPAX2 packaging plasmid and pMD2.G expressing plasmid. Cells were infected with lentivirus with 0.8 μg/ml polybrene, selected with puromycin (1 μg/ml, InvivoGen), blasticidin (2 μg/ml, InvivoGen) or hygromycin B (2 μg/ml, InvivoGen) for 3 days and then single cells were sorted into 96-well plates. Single cells were maintained in DMEM with 10% (v/v) FBS and 1% (v/v) penicillin/streptomycin at 37° C. in an incubator with 20% O2 and 5% CO2 for 3-4 weeks and each colony was verified by western blot to confirm the target gene deletion. To generate cell lines with DOX-inducible CRISPR-Cas9-mediated gene deletion, cells were infected with lentivirus, selected with puromycin (1 μg/ml, InvivoGen), blasticidin (2 μg/ml, InvivoGen) or hygromycin B (2 μg/ml, InvivoGen) for 2 days and then single cells were sorted into 96-well plates. Once cell lines were established, 1 μg/ml of DOX (Sigma-Aldrich) was added to the media to induce target gene deletion for 48 hours after selection; then cells were cultured in DOX-free media for subsequent analyses.
as §1, §2

[2] = test system: GPX4 knockdown HT-1080 cells with DHODH deletion; experiment: Lipid peroxidation and ferroptosis in DHODH KO, GPX4 knockdown HT-1080 cells; assay type: cell-based, human
Description: Knockout of DHODH, ACSL4 and COQ2 in human cell lines was performed using single guide RNAs (sgRNAs) and doxycycline (DOX)-inducible CRISPR-Cas9 expression system as described in our recent publication (Lee, H., et al., Nature cell biology 22, 225-234 (2020)). sgRNAs were cloned into the lentiviral lentiGuide vector. LentiGuide clones were transfected into HEK293T cells with psPAX2 packaging plasmid and pMD2.G expressing plasmid. Cells were infected with lentivirus with 0.8 μg/ml polybrene, selected with puromycin (1 μg/ml, InvivoGen), blasticidin (2 μg/ml, InvivoGen) or hygromycin B (2 μg/ml, InvivoGen) for 3 days and then single cells were sorted into 96-well plates. […]
Cells were seeded on 12-well plates and incubated overnight. […] Lipid peroxidation was assessed using the flow cytometer BD Accuri C6 with a 488 nm laser on an FL1 detector. A minimum of 10,000 single cells were analyzed per well.
Cell death was measured by propidium iodide (Roche) staining using a flow cytometer, as previously described (Dai, F., et al., Proc Natl Acad Sci USA 114, 3192-3197 (2017); Zhang, Y., et al., Cancer Res 80, 2243-2256 (2020)). […] A minimum of 10,000 single cells were analyzed per well and all experiments were carried out at least in triplicate.

GPX4^high HT-1080 cells = experiment: Cell viability / cell death (ferroptosis) in HT-1080 cells; assay type: cell-based, human; details: 24 hours
How it was run: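 HT-1080 cells were exposed to GPX4 or DHODH inhibitors for 4 h, and viability was then read by CCK-8 absorbance at 450 nm after 1 h at 37 °C. Separately, cell death was scored as the propidium iodide-positive fraction (5 μg/ml) by flow cytometry, ≥10,000 cells per well.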

## Clc1cccc(CN=C2Nc3ccccc3NC23CCNCC3)c1 [liproxstatin-1]
GPX4^low NCI-H226 cells
  rescue of DHODH inhibition-induced cell death: largely rescued
[1]
  restoration of brequinar-suppressed tumor growth: could be restored
DHODH KO HT-1080 cells
  protection against GPX4 inhibition (RSL3 or ML162)-induced ferroptosis: rescued
[2]
  rescue of lipid peroxidation and ferroptosis: could be rescued
GPX4^high HT-1080 cells; BQR, pretreatment Lip-1 or ZVF 10 μM
  rescue of DHODH inhibition-induced cell death: the opposite was observed
GPX4^high HT-1080 cells; DHODH WT, pretreatment 10 μM
  protection against GPX4 inhibition (RSL3 or ML162)-induced ferroptosis: rescued
